These are literature values, as cited in US20240390265A1, “FORMULATIONS FOR TRANSDERMAL ADMINISTRATION OF ACTIVE AGENTS” (DYVE BIOSCIENCES, INC., priority 2022, published 2024).

Series [1] relates to KRAS G12D mutant tumor cells.
Series [2] relates to tumor models harboring KRAS G12D mutations.
For series [3] the following is noted: in vivo.
The next series deals with CRAF (Homo sapiens, UniProt P04049).
Series [4] relates to cell line and primary human tumor derived xenograft models. The following applies: at well-tolerated doses.
For series [5], the system named is panel of 456 human kinases.
Series [6] concerns the target T1, BRAF (Homo sapiens, UniProt P15056).
Target sequence in this assay (P15056 whole entry): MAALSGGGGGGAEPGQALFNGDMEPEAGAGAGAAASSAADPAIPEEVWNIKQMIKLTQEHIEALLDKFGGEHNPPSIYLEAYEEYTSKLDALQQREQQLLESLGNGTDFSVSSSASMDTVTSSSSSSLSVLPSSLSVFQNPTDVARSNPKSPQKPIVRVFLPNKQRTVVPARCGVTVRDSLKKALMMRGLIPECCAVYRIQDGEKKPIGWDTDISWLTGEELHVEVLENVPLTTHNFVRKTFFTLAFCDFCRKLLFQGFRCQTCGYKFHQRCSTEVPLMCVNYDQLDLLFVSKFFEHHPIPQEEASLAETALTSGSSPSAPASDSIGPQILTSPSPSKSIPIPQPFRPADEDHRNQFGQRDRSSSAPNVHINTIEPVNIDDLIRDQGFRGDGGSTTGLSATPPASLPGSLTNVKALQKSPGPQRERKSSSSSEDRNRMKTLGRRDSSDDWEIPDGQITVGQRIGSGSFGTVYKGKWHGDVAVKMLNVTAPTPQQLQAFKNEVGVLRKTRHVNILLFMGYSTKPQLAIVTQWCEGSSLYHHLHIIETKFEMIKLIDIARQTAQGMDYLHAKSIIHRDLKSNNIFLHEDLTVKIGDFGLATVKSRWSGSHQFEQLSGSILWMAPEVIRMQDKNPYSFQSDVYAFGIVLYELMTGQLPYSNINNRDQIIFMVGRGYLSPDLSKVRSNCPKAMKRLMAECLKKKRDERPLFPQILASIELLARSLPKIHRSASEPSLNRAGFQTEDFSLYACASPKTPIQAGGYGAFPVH
In series [7] the target is T1, BRAF. The following applies: read-out: IC50 (B-Raf inhibitor).
Target sequence in this assay (P15056 2-766 limits assumed): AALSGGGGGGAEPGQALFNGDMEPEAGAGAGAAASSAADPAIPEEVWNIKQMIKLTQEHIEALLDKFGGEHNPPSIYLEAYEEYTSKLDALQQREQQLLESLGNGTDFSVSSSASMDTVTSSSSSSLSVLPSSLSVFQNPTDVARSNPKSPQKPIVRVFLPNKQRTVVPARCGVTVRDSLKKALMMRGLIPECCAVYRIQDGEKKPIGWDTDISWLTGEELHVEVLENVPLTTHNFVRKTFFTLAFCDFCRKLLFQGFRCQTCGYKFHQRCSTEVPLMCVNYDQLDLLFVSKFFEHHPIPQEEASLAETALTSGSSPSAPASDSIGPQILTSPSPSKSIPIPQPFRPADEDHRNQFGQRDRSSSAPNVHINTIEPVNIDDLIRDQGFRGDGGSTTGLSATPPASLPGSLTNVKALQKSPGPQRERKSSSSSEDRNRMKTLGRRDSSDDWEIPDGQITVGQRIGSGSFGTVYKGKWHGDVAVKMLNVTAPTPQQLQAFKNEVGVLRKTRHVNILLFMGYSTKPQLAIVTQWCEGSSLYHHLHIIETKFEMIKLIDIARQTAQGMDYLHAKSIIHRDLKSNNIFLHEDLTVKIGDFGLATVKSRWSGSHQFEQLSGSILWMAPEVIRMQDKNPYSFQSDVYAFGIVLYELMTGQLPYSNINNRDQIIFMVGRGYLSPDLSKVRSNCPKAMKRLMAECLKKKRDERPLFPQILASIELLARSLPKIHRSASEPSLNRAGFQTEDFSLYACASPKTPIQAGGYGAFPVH

Chain of CRAF (P04049 whole entry): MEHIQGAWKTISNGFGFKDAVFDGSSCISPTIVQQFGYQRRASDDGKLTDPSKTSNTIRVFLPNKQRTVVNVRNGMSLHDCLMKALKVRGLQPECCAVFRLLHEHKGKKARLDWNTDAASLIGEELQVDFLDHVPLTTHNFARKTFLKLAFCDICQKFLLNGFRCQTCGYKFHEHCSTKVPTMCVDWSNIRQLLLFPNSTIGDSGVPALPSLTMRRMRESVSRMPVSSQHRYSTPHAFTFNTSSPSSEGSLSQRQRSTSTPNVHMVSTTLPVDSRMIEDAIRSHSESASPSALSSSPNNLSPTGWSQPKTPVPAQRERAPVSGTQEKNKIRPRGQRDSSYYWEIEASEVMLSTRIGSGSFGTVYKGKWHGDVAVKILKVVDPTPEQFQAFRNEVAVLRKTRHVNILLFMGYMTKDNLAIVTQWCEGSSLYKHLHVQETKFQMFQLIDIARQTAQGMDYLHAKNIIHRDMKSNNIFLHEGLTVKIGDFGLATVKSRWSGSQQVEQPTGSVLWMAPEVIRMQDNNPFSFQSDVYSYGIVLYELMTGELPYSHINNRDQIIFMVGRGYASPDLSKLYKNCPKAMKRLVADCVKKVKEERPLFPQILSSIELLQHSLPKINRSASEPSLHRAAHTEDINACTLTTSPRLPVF

On to `C#Cc1c(F)ccc2cc(O)cc(-c3ncc4c(N5CC6CCC(C5)N6)nc(OC[C@@]56CCCN5C[C@H](F)C6)nc4c3F)c12` [MRTX1133], for which, in series [1], the “activity in cellular assays” value is given as “single digit nanomolar”. Besides, the “in vivo efficacy in tumor models harboring KRAS G12D mutations” value in series [2] is recorded as “marked in vivo efficacy”.
Take `Cc1ccc(NC(=O)c2ccnc(C(F)(F)F)c2)cc1-c1cc(OCCO)nc(N2CCOCC2)c1` [Naporafenib]: the oral bioavailability entry in series [3] is reported as “orally bioavailable”. Also, the “concentrations inhibiting CRAF kinase activity” value at CRAF is “picomolar”. For the same compound, in series [4], the “effect on tumors in xenograft models” value is given as “tumor regression”. Also, the “selectivity against a panel of 456 human kinases” value in series [5] is on record as “high degree of selectivity”. The “concentrations inhibiting BRAF kinase activity” value at BRAF [6] is on record as “picomolar”.
Consider `Cc1ccc2c(Nc3cccc(OC(F)(F)F)c3)nccc2c1Nc1ncccc1-c1ncnc2nc[nH]c12` [LUT014, 6-methyl-5-N-[3-(7H-purin-6-yl)pyridin-2-yl]-1-N-[3-(trifluoromethoxy)phenyl]isoquinoline-1,5-diamine], for which the IC50 at BRAF [7] was 11.7 nM.
